# Legend:
# [1] = target: T1, Serine/threonine-protein kinase haspin (Homo sapiens) (UniProt Q8TF76); assay: Inhibition of human recombinant Haspin at 40 nM related to control ULK1
# T1 sequence (whole entry): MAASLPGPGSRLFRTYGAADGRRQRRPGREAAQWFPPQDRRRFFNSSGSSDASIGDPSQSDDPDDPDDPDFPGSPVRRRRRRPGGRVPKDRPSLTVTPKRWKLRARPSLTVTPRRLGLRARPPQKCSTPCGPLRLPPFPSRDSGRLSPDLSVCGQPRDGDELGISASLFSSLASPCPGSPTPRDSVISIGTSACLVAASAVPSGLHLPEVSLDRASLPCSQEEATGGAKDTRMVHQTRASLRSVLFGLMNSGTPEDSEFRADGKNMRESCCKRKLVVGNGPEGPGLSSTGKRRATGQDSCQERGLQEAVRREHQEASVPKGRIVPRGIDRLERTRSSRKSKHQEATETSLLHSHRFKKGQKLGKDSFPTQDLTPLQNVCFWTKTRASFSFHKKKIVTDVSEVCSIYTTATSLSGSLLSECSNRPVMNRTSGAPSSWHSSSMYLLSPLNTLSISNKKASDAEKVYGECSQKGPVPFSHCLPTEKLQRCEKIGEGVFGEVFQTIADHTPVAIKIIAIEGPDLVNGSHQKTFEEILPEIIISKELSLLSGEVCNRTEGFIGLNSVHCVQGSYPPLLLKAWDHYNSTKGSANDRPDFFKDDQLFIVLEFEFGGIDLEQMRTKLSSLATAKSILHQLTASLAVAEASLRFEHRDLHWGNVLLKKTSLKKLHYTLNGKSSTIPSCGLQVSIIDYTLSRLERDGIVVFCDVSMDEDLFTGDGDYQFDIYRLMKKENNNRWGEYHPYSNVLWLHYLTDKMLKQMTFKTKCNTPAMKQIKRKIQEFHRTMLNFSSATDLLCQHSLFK
# [2] = target: T2, Serine/threonine-protein kinase PLK4 (Homo sapiens) (UniProt O00444); assay: Inhibition of human recombinant PLK4 at 40 nM related to control ULK1
# T2 sequence (whole entry): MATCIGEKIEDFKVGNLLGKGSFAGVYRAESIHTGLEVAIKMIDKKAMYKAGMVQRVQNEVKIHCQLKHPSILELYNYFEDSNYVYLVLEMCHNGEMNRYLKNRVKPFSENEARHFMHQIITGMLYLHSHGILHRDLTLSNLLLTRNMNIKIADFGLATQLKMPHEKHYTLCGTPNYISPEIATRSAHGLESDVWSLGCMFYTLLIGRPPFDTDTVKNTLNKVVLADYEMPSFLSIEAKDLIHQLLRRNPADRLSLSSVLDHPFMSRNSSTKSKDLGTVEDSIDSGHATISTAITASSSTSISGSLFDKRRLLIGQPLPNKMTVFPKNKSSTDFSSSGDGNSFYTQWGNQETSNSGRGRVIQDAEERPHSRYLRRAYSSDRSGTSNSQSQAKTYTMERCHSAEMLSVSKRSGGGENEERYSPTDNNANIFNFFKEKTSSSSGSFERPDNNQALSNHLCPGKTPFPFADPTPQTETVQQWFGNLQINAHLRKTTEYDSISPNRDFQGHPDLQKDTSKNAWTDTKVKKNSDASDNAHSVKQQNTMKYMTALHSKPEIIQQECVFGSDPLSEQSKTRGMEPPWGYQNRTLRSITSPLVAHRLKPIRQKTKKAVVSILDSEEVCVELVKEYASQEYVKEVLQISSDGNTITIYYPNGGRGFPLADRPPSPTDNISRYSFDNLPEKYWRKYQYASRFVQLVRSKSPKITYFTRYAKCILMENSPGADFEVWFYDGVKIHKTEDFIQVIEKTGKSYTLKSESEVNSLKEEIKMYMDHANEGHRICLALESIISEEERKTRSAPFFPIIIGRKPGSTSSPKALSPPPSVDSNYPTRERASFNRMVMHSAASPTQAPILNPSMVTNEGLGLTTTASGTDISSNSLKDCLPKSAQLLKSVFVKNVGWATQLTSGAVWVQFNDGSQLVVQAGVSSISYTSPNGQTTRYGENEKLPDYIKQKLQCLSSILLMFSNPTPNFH
# [3] = target: T3, Serine/threonine-protein kinase tousled-like 1 (Homo sapiens) (UniProt Q9UKI8); assay: Inhibition of human recombinant TLK1 at 40 nM related to control ULK1
# T3 sequence (whole entry): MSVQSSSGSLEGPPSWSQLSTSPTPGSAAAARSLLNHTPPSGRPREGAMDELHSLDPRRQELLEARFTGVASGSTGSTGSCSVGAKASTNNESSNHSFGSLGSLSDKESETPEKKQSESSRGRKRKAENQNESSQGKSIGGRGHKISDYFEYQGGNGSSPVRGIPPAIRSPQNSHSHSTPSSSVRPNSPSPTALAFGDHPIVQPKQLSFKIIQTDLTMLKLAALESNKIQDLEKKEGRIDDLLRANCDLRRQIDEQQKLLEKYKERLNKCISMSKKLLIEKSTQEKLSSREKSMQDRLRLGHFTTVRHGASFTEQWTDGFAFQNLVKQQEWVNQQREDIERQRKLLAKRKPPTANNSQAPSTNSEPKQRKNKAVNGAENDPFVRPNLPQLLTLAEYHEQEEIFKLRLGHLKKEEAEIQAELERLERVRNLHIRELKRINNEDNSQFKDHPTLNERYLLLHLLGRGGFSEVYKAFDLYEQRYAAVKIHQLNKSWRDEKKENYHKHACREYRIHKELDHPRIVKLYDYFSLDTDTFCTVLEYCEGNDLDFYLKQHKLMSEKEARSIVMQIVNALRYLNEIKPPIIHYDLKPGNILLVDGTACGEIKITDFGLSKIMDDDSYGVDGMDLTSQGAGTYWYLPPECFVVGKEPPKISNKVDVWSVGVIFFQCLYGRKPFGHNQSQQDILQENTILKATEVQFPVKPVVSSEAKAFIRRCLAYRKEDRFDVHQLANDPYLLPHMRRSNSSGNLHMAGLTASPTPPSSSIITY
# [4] = target: Serine/threonine-protein kinase 32B (Homo sapiens) (UniProt Q9NY57); assay: Inhibition of human recombinant YANK2 at 40 nM related to control ULK1
# Serine/threonine-protein kinase 32B (Homo sapiens), sequence (Q9NY57 whole entry): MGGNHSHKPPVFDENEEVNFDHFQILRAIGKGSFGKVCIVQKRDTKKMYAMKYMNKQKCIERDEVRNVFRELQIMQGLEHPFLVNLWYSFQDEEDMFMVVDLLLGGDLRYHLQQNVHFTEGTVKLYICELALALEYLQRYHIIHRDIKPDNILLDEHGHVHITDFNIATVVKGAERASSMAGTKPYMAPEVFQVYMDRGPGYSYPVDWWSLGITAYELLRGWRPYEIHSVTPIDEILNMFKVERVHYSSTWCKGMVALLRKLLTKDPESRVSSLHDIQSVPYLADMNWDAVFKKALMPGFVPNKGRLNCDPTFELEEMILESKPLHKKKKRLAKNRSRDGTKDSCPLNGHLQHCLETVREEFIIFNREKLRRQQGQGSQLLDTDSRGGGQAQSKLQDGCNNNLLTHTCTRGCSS
smiles,measurement,setting,value
O=C(N[C@@H](C1CC1)C(F)(F)F)c1cc(-c2cnn3cc(-c4ccc(F)cc4)cnc23)cs1,fold change (FC),[1],0.01
same,fold change (FC),[2],0.1
same,fold change (FC),[3],0
same,fold change (FC),[4],0.04

# — ChEMBL document CHEMBL5653631, “A Potent and Selective ULK1 Inhibitor Suppresses Autophagy and Sensitizes Cancer Cells to Nutrient Stress” (iScience, 2018)
